# Assays:
# [1] = system: Streptococcus sobrinus B-13 strain; experiment: Antimicrobial activity against Streptococcus sobrinus B-13; assay type: cell-based; details: tested 0 to 100 μM
# Experimental: [The procedure below names another organism; the source lists this organism under the same test.] The Candida albicans GDH18 strain was precultured using SD medium (Difco) at 37° C. for 24 hours under aerobic conditions. The Streptococcus sobrinus B-13 strain, Streptococcus mutans NCTC10449 strain and Streptococcus mutans Ingbritt strain were precultured using TSB medium (Difco) supplemented with 5% yeast extract (Difco) at 37° C. for 24 hours under aerobic conditions. The Porphyromonas gingivalis Hudoi001 strain and Aggregatibacter actinomycetemcomitans Hudoe001 strain were precultured using BHI medium (Difco) supplemented with hemin (5 mg/L) and vitamin K3 (1 mg/L) at 37° C. for 96 hours under anaerobic conditions with Anaero Pack System (Mitsubishi Gas Chemical Company, Inc.).
# After the culture, the cells of the Candida, cariogenic bacteria and periodontal disease bacteria were collected by centrifugation at 1000×g, and washed twice with 1 mM phosphate buffer (pH 6.8). The cells were then suspended such that the final concentration was 1×10^8 cfu/ml or 1×10^7 cells/m. For suspension of the Streptococcus strains, ultrasonic treatment was also carried out.
# Evaluation of the antimicrobial activity was carried out by the method by Edgerton and others (1998) with some modifications. With 20 mL of 1 mM phosphate buffer containing 0 to 25 μM Kog1 or Kog2 synthesized in Example 1, 20 μl of the suspension of the Candida albicans GDH18 strain cultured and prepared by the method described in the above Preparation Example was mixed, and the resulting mixture was incubated at 37° C. for 90 minutes with shaking. As a control, 20 ml of 1 mM phosphate buffer alone was used. The reaction was stopped by addition of 360 ml of YNB medium (Difco), and the number of colonies formed (colony forming units; CFUs) was counted together with the number of colonies in the control, to determine the percentage of living bacterial cells. That is, the equation of: (CFUs of suspension containing Kog1 or Kog2/CFU ml^−1 of control suspension)×100 was used to calculate the percentage. […]
# [2] = system: Streptococcus mutans NCTC10449 strain; experiment: Antimicrobial activity against Streptococcus mutans NCTC10449; assay type: cell-based; details: 0 to 100 μM, FIG. 4
# MC3T3-E1 cells = experiment: Differentiation into osteoblasts: Type-I collagen expression by real-time quantitative RT-PCR; assay type: cell-based, mouse
# Experimental: MC3T3-E1 cells, which are mouse-derived osteoblast-like cells, were used. The MC3T3-E1 cells were cultured in α-modified Eagle's Medium (α-MEM) supplemented with 10% FBS (Biological industries, Haemek, Israel), L-glutamine, antibiotic mixture (Invitrogen), 50 μg/ml ascorbic acid (Sigma), and 0 nM, 250 nM, 500 nM or 1000 nM Kog2, at 37° C. under 5% CO2 on plastic or titanium. From the thus cultured MC3T3-E1 cells, total RNA was extracted using TRIzol reagent (Invitrogen), and cDNA was then prepared using ReverTra Ace reverse transcriptase (Toyobo Co., Ltd.). Subsequently, the prepared cDNA was used for analyzing expression of Type-I collagen, which is a differentiation marker for osteoblasts, and of β-actin, which is an endogenous control, by real-time quantitative RT-PCR. In the real-time quantitative RT-PCR, Type-I collagen was analyzed using the forward primer shown in SEQ ID NO: 8, the reverse primer shown in SEQ ID NO: 9 and the probe shown in SEQ ID NO: 10. β-actin was analyzed using the forward primer shown in SEQ ID NO: 11, the reverse primer shown in SEQ ID NO: 12, and the probe shown in SEQ ID NO: 13.
# [3] = system: Candida albicans MYA274 strain; experiment: Boiling experiment: antimicrobial activity (ATP) against Candida albicans MYA274; assay type: cell-based; details: concluded from supernatant boiled at 100° C. for 20 minutes; peptides not directly used
# Experimental: In Example 9, antimicrobial activity against the Candida albicans MYA274 strain was investigated. The Candida albicans MYA274 strain was precultured in Sabouraud dextrose broth (Difco) at 37° C. for 24 hours, and then washed twice with MQ water, followed by being prepared such that OD600 is 0.3 (1.0×10^7 cells/ml).
# In Example 9, the bacteriocin Kog1 or Kog2, or the Lactobacillus rhamnosus KO1 strain or KO3 strain, was not directly used. Instead, a lactic acid bacterium medium containing the Lactobacillus rhamnosus KO3 strain, 8020 yogurt (liquid type), was used in the experiment More specifically, the 8020 yogurt (liquid type) was prepared by adding the Lactobacillus rhamnosus KO3 strain at a concentration of 1% and YF-L811 starter at a concentration of 1% to the 15% skim milk+3% glucose medium, and then performing culture at 35° C. for 2 days.
# Such 8020 yogurt (liquid type) was centrifuged to obtain a supernatant from which the lactic acid bacterium was removed (hereinafter referred to as Supernatant B). In the experiment, Supernatant B and a sample prepared by boiling Supernatant B at 100° C. for 20 minutes (hereinafter referred to as Supernatant Boil) were used. […]
# In order to study changes in the antimicrobial activity by boiling, the following 3 kinds of samples were placed in a 24-well plate, and the value of ATP (pmol/L) after 24 hours of incubation at 37° C. was measured. […]
substance,measurement,setting,value
"Kog2: peptide having the amino acid sequence shown in SEQ ID NO: 2, bacteriocin of Lactobacillus rhamnosus, synthesized by the tea-bag method (MTKVRSSRLRPLTLRLLSAPARAQFLTIACRAILRYDLINS; listed as Lactobacillus rhamnosus)",peptide concentration at which 100% of the strain was killed,[1],0.39 µM
same,"antimicrobial activity compared to the other antimicrobial peptides (hBD2, lysozyme)",[2],capable of killing a larger amount of Streptococcus mutans even at relatively low peptide concentration
same,value of Type I collagen/β-actin versus no Kog2 added,MC3T3-E1 cells; Kog2 at 250 nM vs ctrl,3 times
same,concentration that best promotes differentiation into osteoblasts,"MC3T3-E1 cells; tested 0, 250, 500, 1000 nM",about 250 nM
same,heat resistance (antimicrobial activity after heating),[3],still maintain antimicrobial activity after heating

# From patent US9314498B2, “Bacteriocin derived from Lactobacillus rhamnosus” (priority 2011, dated 2016)
